One may read the inhibition as the change of the read-out against control, counted positive when it falls.

Series [1] has as its target Glutamate NMDA receptor (Rattus norvegicus) (UniProt P35439+Q00959+Q00960+Q00961+Q62645+Q8VHN2+Q9R1M7). The note with it: Compound concentration 10.0 uM.
For series [2], the target named is Beta-1 adrenergic receptor (Homo sapiens) (UniProt P08588). As to conditions: Compound concentration 10.0 uM; call rule not given here.
For another series, the target named is hERG (KCNH2) (Homo sapiens, UniProt Q12809). Description: Inhibition of Potassium Channel hERG at 10 µM in the Eurofins-Panlabs radioligand binding assay (Eurofins_assay_265900). On the set-up: ligand concentration 1.5 nM, non-specific ligand with concentration Astemizole, incubation time 60 min, incubation temperature 25 °C. As to conditions: HEK-293 cells that express recombinant human hERG, probe [3H] Astemizole, 1.5 nM, compound concentration 10 uM. On the technique in general: Block of hERG is tested as a sign of cardiac risk.

The target in series [3] is T1, 5-hydroxytryptamine receptor 1A (Homo sapiens) (UniProt P08908).
T1 sequence (whole entry): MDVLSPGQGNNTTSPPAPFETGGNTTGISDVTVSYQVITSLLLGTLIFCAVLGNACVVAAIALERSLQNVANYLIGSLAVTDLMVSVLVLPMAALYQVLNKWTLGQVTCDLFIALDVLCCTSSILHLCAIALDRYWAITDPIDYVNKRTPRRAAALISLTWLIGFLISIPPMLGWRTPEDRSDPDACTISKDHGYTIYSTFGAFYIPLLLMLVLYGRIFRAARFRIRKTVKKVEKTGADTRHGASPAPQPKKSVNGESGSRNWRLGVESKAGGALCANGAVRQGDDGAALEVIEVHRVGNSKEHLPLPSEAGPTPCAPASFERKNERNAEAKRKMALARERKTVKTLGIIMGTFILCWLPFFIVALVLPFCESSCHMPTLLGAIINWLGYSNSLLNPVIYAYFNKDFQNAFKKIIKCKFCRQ
The note with it: Compound concentration 10.0 uM.

Series [4] has as its target B1 bradykinin receptor (Homo sapiens) (UniProt P46663). Description: Inhibition of Bradykinin B1 at 10 µM in the Eurofins-Panlabs radioligand binding assay (Eurofins_assay_212510). As to conditions: Compound concentration 10.0 uM.
Series [5] concerns the target T2, Alpha-1A adrenergic receptor (Homo sapiens) (UniProt P35348).
T2 sequence (whole entry): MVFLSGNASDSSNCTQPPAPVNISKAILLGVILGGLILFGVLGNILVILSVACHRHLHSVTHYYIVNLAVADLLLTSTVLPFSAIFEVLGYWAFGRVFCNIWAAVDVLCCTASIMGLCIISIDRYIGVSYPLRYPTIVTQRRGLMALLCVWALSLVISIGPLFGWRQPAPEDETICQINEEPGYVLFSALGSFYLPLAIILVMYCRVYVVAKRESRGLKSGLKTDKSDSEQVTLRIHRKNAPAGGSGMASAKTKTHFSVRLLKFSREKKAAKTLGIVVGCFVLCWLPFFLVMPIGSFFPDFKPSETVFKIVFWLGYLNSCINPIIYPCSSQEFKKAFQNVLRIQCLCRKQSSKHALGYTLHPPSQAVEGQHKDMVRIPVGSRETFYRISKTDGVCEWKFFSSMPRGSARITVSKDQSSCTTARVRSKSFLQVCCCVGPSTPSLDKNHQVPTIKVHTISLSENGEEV
The note with it: Rattus norvegicus; Compound concentration 10.0 uM.

The target in series [6] is D(2) dopamine receptor (Homo sapiens) (UniProt P14416). The note with it: Compound concentration 10.0 uM.
For a further series, the species on record is Mus musculus. Description: Inhibition of Interleukin IL-1 at 10 µM in the Eurofins-Panlabs radioligand binding assay (Eurofins_assay_243520). Also noted: ligand concentration 0.1 nM. As to conditions: Compound concentration 10.0 uM.
Series [7] concerns the target T3, Muscarinic acetylcholine receptor M2 (Homo sapiens) (UniProt P08172).
T3 sequence (whole entry): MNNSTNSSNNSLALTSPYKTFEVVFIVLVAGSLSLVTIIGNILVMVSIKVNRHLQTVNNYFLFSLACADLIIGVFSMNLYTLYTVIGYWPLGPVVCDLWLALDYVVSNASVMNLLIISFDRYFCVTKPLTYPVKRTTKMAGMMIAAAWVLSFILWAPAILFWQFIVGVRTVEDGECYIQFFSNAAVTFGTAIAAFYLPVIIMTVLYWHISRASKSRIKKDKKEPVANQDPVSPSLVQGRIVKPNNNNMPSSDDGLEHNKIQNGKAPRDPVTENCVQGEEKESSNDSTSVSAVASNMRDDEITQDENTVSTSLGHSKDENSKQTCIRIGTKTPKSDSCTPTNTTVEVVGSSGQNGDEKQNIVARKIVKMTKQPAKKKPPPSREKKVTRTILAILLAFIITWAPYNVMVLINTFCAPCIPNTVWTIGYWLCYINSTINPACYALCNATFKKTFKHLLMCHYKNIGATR
As to conditions: Compound concentration 10.0 uM.

The species named for series [8] is Rattus norvegicus. Description: Inhibition of Thyroid Hormone at 10 µM in the Eurofins-Panlabs radioligand binding assay (Eurofins_assay_285900). Format: protein assay. As to conditions: Compound concentration 10.0 uM.
Series [9] concerns the target ATP-sensitive inward rectifier potassium channel 11 (Cricetulus griseus) (UniProt A0A3L7HHE1). Description: Inhibition of Potassium Channel [KATP] at 10 µM in the Eurofins-Panlabs radioligand binding assay (Eurofins_assay_265600). As to conditions: Cricetinae; Compound concentration 10.0 uM.
Series [10] addresses Sodium-dependent noradrenaline transporter (Homo sapiens) (UniProt P23975). The note with it: Compound concentration 10.0 uM.
The target of series [11] is voltage-gated sodium channel, site 2 (Rattus norvegicus, UniProt F1LQQ7+O08562+O88420+O88457+P04774+P04775+P08104+P15389+P15390+Q62968). Description: Inhibition of Sodium Channel, Site 2 at 10 µM in the Eurofins-Panlabs radioligand binding assay (Eurofins_assay_279510). The note with it: male, Wistar, rat whole brain (except cerebellum) membranes, probe [3H] Batrachotoxinin, 5 nM, compound concentration 10 uM. Also noted: ligand concentration 5 nM, non-specific ligand with concentration 100 µM Veratridine, incubation time 60 min, incubation temperature 37 °C. The format is protein assay.

Series [12] has as its target Prostaglandin E2 receptor EP4 subtype (Homo sapiens) (UniProt P35408). The series is described as follows: Inhibition of Prostanoid EP4 at 10 µM in the Eurofins-Panlabs radioligand binding assay (Eurofins_assay_268420). Also noted: ligand concentration 1 nM. The note with it: Compound concentration 10.0 uM.
The target in series [13] is D(3) dopamine receptor (Homo sapiens) (UniProt P35462). The note with it: Compound concentration 10.0 uM.
Series [14] concerns the target GABA-A receptor; anion channel (Rattus norvegicus) (UniProt O09028+P15431+P18506+P18508+P19969+P20236+P23574+P23576+P28471+P28473+P30191+P62813+P63079+P63138+Q91ZM7+Q9ES14). Description: Inhibition of GABAA, Muscimol, Central at 10 µM in the Eurofins-Panlabs radioligand binding assay (Eurofins_assay_226500). As to conditions: Compound concentration 10.0 uM. The format is protein-complex assay.

Series [15] concerns the target Histamine H3 receptor (Homo sapiens) (UniProt Q9Y5N1). The note with it: Compound concentration 10.0 uM.
The species entered for series [16] is Rattus norvegicus. Description: Inhibition of Rolipram at 10 µM in the Eurofins-Panlabs radioligand binding assay (Eurofins_assay_268811). The format is protein assay. Also noted: ligand concentration 1.8 nM. As to conditions: Compound concentration 10.0 uM.
The target in series [17] is Neuropeptide Y receptor type 1 (Homo sapiens) (UniProt P25929). Description: Inhibition of Neuropeptide Y Y1 at 10 µM in the Eurofins-Panlabs radioligand binding assay (Eurofins_assay_257010). As to conditions: Compound concentration 10.0 uM.
Series [18] addresses Glucocorticoid receptor (Homo sapiens) (UniProt P04150). Description: Glucocorticoid Eurofins-Panlabs radioligand binding assay. As to conditions: Compound concentration 10.0 uM.

SMILES strings stand for the structures.

Glucocorticoid receptor (Homo sapiens), sequence (P04150 whole entry): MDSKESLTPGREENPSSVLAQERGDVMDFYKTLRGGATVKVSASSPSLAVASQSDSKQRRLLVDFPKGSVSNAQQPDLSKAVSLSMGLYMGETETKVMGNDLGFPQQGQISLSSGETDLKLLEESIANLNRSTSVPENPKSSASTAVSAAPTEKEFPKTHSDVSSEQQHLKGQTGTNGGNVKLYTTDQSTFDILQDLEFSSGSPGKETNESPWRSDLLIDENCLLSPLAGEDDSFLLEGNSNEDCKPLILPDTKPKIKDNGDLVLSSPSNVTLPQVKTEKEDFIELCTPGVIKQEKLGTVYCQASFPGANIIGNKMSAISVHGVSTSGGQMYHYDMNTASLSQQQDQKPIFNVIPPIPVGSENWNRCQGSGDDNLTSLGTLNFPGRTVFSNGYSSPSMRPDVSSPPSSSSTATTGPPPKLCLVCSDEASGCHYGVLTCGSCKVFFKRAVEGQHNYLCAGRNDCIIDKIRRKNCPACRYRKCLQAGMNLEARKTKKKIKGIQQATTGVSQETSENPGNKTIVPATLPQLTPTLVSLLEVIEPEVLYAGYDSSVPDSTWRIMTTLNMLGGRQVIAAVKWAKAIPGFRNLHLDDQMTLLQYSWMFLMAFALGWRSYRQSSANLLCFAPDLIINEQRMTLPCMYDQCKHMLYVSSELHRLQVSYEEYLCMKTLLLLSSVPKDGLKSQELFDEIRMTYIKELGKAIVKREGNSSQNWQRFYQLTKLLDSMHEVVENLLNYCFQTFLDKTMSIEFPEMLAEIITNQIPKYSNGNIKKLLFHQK
hERG (KCNH2), sequence (Q12809 whole entry): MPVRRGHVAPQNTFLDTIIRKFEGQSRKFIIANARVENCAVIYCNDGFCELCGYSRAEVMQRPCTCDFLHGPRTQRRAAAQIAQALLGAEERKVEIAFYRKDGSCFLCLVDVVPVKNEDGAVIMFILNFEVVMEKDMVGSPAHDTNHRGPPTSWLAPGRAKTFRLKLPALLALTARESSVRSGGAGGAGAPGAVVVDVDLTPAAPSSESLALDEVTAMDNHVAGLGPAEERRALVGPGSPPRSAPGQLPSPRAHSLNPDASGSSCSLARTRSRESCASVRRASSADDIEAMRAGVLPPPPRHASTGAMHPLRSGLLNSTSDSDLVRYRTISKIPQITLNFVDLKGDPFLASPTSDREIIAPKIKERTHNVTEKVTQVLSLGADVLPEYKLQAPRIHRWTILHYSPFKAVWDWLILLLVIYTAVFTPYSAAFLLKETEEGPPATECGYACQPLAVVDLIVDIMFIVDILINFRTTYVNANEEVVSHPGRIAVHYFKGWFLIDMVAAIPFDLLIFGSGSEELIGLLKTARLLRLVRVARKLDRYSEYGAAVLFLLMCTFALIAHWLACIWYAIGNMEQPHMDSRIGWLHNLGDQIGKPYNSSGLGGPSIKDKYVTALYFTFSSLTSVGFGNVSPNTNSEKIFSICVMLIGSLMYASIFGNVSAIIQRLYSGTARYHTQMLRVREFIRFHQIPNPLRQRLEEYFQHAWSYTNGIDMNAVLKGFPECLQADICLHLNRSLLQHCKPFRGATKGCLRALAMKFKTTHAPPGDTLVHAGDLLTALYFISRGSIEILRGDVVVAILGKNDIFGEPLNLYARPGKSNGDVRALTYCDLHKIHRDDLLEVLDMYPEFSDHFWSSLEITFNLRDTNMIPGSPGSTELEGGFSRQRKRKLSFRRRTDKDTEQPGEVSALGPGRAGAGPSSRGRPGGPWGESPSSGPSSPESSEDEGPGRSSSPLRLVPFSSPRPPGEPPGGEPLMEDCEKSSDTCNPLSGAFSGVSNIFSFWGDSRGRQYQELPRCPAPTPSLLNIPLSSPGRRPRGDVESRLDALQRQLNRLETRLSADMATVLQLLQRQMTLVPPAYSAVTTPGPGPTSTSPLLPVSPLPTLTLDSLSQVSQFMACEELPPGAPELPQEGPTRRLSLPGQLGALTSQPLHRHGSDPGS
B1 bradykinin receptor (Homo sapiens), sequence (P46663 whole entry): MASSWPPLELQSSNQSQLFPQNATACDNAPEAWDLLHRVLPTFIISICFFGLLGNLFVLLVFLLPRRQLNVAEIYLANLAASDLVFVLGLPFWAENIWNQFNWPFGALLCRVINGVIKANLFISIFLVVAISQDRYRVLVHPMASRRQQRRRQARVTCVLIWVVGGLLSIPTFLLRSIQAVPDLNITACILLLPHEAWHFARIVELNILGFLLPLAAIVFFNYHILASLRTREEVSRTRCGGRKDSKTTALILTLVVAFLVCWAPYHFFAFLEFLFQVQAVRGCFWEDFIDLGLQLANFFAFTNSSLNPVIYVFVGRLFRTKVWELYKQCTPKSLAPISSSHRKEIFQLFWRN
Sodium-dependent noradrenaline transporter (Homo sapiens), sequence (P23975 whole entry): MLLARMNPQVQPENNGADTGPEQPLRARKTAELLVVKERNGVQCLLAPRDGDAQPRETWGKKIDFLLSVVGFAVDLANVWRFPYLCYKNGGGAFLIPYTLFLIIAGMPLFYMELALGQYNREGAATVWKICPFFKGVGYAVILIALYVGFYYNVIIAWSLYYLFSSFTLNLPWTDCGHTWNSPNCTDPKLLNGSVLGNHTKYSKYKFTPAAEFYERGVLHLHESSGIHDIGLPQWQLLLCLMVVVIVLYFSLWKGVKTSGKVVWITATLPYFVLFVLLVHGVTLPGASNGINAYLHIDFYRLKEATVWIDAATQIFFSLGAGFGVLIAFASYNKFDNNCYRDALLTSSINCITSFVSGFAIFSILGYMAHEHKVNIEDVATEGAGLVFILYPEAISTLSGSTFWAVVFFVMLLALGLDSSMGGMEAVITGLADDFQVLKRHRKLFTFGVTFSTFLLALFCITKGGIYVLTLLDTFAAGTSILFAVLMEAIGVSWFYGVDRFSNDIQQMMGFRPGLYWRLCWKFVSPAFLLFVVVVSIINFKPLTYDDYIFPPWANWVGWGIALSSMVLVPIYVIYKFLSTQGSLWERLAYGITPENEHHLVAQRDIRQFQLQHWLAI
ATP-sensitive inward rectifier potassium channel 11 (Cricetulus griseus), sequence (A0A3L7HHE1 as listed by the source): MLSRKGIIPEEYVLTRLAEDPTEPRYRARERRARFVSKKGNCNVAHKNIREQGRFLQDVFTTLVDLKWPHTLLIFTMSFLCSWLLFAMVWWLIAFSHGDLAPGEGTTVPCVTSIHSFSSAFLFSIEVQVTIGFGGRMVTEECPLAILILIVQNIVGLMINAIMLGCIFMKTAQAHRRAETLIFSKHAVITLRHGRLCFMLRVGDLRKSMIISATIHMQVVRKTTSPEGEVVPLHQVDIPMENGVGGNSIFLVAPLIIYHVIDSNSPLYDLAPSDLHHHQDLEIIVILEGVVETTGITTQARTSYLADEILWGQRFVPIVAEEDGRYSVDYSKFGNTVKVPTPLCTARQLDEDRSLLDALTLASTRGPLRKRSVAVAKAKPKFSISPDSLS
Beta-1 adrenergic receptor (Homo sapiens), sequence (P08588 whole entry, looked up): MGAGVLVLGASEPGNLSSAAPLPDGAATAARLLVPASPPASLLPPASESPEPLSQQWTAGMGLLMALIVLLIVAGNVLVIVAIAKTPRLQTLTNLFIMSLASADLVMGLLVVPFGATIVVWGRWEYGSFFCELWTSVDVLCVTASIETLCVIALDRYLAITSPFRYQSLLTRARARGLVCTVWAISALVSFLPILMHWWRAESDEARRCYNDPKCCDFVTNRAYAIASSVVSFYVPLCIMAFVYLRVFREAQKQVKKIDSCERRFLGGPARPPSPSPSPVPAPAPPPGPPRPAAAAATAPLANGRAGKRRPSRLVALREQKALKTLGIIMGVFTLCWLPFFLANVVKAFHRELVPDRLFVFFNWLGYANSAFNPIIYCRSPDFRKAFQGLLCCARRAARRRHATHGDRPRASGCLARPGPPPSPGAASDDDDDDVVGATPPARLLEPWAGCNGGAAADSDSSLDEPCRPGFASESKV
Neuropeptide Y receptor type 1 (Homo sapiens), sequence (P25929 whole entry): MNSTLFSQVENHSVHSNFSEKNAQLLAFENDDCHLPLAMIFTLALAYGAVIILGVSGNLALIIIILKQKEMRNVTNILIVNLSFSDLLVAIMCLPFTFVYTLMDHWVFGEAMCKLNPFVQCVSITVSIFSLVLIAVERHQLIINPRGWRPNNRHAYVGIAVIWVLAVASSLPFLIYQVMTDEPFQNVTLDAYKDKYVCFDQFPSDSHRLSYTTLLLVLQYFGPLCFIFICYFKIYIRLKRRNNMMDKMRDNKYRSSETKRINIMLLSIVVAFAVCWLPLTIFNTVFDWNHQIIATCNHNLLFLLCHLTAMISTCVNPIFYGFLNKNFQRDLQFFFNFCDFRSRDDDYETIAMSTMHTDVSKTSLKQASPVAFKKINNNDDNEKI
D(3) dopamine receptor (Homo sapiens), sequence (P35462 whole entry): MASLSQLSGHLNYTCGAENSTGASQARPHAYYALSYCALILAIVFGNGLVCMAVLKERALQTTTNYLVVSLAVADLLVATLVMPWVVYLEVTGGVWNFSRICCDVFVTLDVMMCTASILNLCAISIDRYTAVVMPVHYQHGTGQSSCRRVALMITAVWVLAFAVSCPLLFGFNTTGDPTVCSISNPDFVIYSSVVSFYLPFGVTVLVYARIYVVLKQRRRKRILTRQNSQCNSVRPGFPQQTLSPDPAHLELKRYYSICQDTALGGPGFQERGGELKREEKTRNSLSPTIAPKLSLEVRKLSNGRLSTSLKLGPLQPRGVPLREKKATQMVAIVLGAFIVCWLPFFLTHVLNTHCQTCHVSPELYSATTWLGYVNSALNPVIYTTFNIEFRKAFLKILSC
Histamine H3 receptor (Homo sapiens), sequence (Q9Y5N1 whole entry): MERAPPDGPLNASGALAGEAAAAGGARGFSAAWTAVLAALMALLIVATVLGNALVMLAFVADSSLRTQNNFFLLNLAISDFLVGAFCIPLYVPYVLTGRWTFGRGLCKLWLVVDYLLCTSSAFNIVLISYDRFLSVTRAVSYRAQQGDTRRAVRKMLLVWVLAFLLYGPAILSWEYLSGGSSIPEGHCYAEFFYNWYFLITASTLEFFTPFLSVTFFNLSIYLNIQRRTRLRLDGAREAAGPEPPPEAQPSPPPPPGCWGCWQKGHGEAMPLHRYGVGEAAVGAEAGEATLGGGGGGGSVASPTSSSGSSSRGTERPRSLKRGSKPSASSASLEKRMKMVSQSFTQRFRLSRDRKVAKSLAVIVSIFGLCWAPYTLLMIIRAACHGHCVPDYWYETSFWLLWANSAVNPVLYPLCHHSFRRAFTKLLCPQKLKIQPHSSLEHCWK

Turning to `NS(=O)(=O)c1cc(NC(=O)Cc2ccccc2)ccc1Oc1cccc(Cl)c1` [BAY-1797], the inhibition was -9% in series [1]; 3% in series [2]; 7% in series [3]; 11% in series [4]; 16% in series [5]; 15% in [6]. The inhibition in the series listed under Mus musculus was 24%; in [7] it was 4%; in the series filed under Rattus norvegicus [8] it was 2%; in series [9], -9%; in series [10], 47%; in series [12], 21%. Besides, the inhibition in [13] is 28%; in series [14] it was 15%; in series [15], 0%; in the series filed under Rattus norvegicus [16], 8%; in series [17], 9%; in series [18], 20%. Also, the values for the inhibition at 60 min, 10 µM (at hERG (KCNH2); in series [11]) were 8% (not active) and 57%, respectively.

The values above are taken from ChEMBL document CHEMBL4507265 (2021).
